Data reported in ChEMBL document CHEMBL1201862, “PubChem BioAssay data set” (2004).
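Exposure lasted 48 hours, with cells grown in 96-well plates and compounds tested at five concentrations. GI50: concentration for 50% inhibition of growth.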 The source made the active and inactive calls. No stated cut-off is given here; in the data, active = GI50 up to about 1.1 µM and inactive = higher.

What was measured:
Assay in all cases: growth of human tumour cells (NCI), 48 h
[1] = tested on: NCI-H522
[2] = tested on: OVCAR-4
[3] = tested on: K562
[4] = tested on: SN12C
[5] = tested on: UACC-62
[6] = tested on: A549
[7] = tested on: RXF 393
[8] = tested on: EKVX
[9] = tested on: KM12
[10] = tested on: MOLT-4
[11] = tested on: HCT-116
[12] = tested on: HL-60
[13] = tested on: SR
[14] = tested on: 786-0
[15] = tested on: OVCAR-5
[16] = tested on: HCC 2998
[17] = tested on: ACHN
[18] = tested on: LOX IMVI
[19] = tested on: SK-MEL-28
[20] = tested on: SK-MEL-2

Measured: GI50

CC1(C)CCc2cc3c(cc2O1)OCCC3=O
inactive: [1] > 100 µM | [2] > 100 µM | [3] > 100 µM | [4] > 100 µM | [5] > 100 µM | [6] > 100 µM | [7] > 100 µM | [8] > 100 µM | [9] > 100 µM | [10] > 100 µM | [11] > 100 µM | [12] 95.1 µM | [13] 58.1 µM | [14] > 100 µM | [15] > 100 µM | [16] > 100 µM | [17] > 100 µM | [18] > 100 µM

COc1ccc(OC)c2sc(N3C(=O)/C(=C/c4cccc([N+](=O)[O-])c4)N=C3c3ccccc3)nc12
inactive: [19] 76 µM | [1] 42.6 µM | [3] 23.3 µM | [4] > 100 µM | [5] 36.4 µM | [6] 47.1 µM | [7] 55.1 µM | [8] > 100 µM | [9] 42.2 µM | [10] 21.8 µM | [11] > 100 µM | [12] 20.8 µM | [13] 23.7 µM | [14] 49.7 µM | [15] > 100 µM | [16] 45.5 µM | [17] 99.8 µM | [18] 23.1 µM | [20] 69 µM

CCOC(=O)N1CCc2cc(OC)c(OC)cc2/C1=C\c1ccc(OC)c(OC)c1
inactive: [19] 33.3 µM | [1] 25 µM | [3] > 10 µM | [4] 26.4 µM | [5] 22.9 µM | [6] 26.8 µM | [7] 17.1 µM | [8] 28.1 µM | [9] 29.6 µM | [10] 27.7 µM | [11] 21.9 µM | [12] 19.5 µM | [13] 29.1 µM | [14] 19.9 µM | [15] 38.3 µM | [16] 33.3 µM | [17] 26.3 µM | [18] 18.8 µM | [20] 12.1 µM

O=C1Nc2ccc(Br)cc2/C1=N/Nc1ccc([N+](=O)[O-])cc1[N+](=O)[O-]
inactive: [19] 3.33 µM | [1] 2.42 µM | [3] 3.05 µM | [4] 3.04 µM | [5] 3.85 µM | [6] 5.47 µM | [7] 4.15 µM | [8] 11.3 µM | [9] 4.13 µM | [10] 3.44 µM | [11] 1.55 µM | [12] 1.92 µM | [13] 2.86 µM | [14] 2.77 µM | [16] 10.2 µM | [17] 2.82 µM | [18] 1.73 µM | [20] 2.13 µM

[N-]=[N+]=NC(c1cn(C2CC(O)C(CO)O2)c(=O)[nH]c1=O)C(Br)I (configuration not stated)
inactive: [19] > 100 µM | [1] > 100 µM | [3] > 100 µM | [4] > 100 µM | [5] > 100 µM | [6] > 100 µM | [7] > 100 µM | [8] > 100 µM | [9] > 100 µM | [10] > 100 µM | [11] > 100 µM | [12] > 100 µM | [13] > 100 µM | [14] > 100 µM | [15] > 100 µM | [16] > 100 µM | [17] > 100 µM | [18] > 100 µM | [20] > 100 µM

CCOC1=NC(C(F)(F)F)(C(F)(F)F)N=C(/N=C(/N)N(C)C(C(C)C)P(=O)(OC(C)C)OC(C)C)O1 (configuration not stated)
inactive: [19] > 100 µM | [1] 27.9 µM | [3] 34.7 µM | [4] 76 µM | [5] 54.7 µM | [6] > 100 µM | [7] 41 µM | [8] 52 µM | [9] 78.2 µM | [10] 20.1 µM | [11] 82.2 µM | [12] 27.7 µM | [13] 55.3 µM | [14] > 100 µM | [15] > 100 µM | [16] > 100 µM | [17] 44.7 µM | [18] 81.5 µM | [20] 91.4 µM

O=C(c1ccccc1)c1c(CC(O)c2ccccn2)n(C(=O)c2ccccc2)c2ccccc12 (configuration not stated)
inactive: [19] 20.4 µM | [1] 20.3 µM | [2] 21.8 µM | [3] 27.9 µM | [5] 15.7 µM | [6] 25.3 µM | [9] 28.4 µM | [10] 17.1 µM | [11] 14 µM | [12] > 10 µM | [13] 15.1 µM | [14] 26.1 µM | [15] 20.7 µM | [16] 31.5 µM | [17] 26.7 µM | [20] 14.9 µM

Cc1cc2nc3c(N)nn(CCN(C)C)c3nc2cc1C
inactive: [19] 53.7 µM | [1] 40.1 µM | [2] 40.6 µM | [3] 83.4 µM | [4] 36.7 µM | [5] 39.5 µM | [6] 31.9 µM | [7] 30.4 µM | [8] 58.7 µM | [9] 45.5 µM | [10] 41.8 µM | [11] 33.1 µM | [13] > 100 µM | [14] 40.1 µM | [15] 52 µM | [16] 51.6 µM | [17] 28.4 µM | [18] 25.9 µM | [20] 39 µM

CCCCC#COS(=O)(=O)c1ccc(C)cc1
inactive: [1] 54.1 µM | [2] 65.9 µM | [3] 45.3 µM | [4] > 100 µM | [5] > 100 µM | [6] 44.9 µM | [8] 56.6 µM | [9] 84.9 µM | [10] 88.1 µM | [11] 82.8 µM | [12] > 100 µM | [13] 53 µM | [14] > 100 µM | [15] > 100 µM | [16] > 100 µM | [17] 71.1 µM | [18] > 100 µM | [20] > 100 µM

O=C1NC(=O)C(C(CC(=O)c2ccc(Cl)cc2)c2ccc(Cl)cc2)C(=O)N1 (configuration not stated)
inactive: [19] > 100 µM | [1] > 100 µM | [2] > 100 µM | [3] > 100 µM | [4] > 100 µM | [5] > 100 µM | [6] > 100 µM | [8] 17.1 µM | [9] 37.8 µM | [10] 74 µM | [11] 34 µM | [12] > 100 µM | [13] 35.2 µM | [14] > 100 µM | [15] > 100 µM | [16] 6.73 µM | [17] > 100 µM | [18] 54 µM | [20] > 100 µM

COC(OC)c1cccc2c1C(=O)CCC1(O)c3ccccc3C1C2 (configuration not stated)
inactive: [19] > 100 µM | [1] > 100 µM | [2] > 100 µM | [3] 55.5 µM | [4] > 100 µM | [5] > 100 µM | [6] > 100 µM | [8] > 100 µM | [9] 74 µM | [10] 65.5 µM | [11] 33.7 µM | [12] 35.2 µM | [13] > 100 µM | [14] > 100 µM | [15] > 100 µM | [16] > 100 µM | [18] > 100 µM | [20] > 100 µM
